Results from the CheMixHub viscosity set.
Where “and” joins values, the source holds several entries; their conditions need not be identical. Identical values can stand only once.

Test: xn = mol fraction of the nth substance listed

ClC(Cl)(Cl)Cl + CO
Conditions	viscosity [mPa·s]
298 K, 101.3 kPa, x1 = 0.1518	0.719
298 K, 101.3 kPa, x1 = 0.2927	0.809
298 K, 101.3 kPa, x1 = 0.4346	0.844
298 K, 101.3 kPa, x1 = 0.5445	0.874
298 K, 101.3 kPa, x1 = 0.6871	0.875
298 K, 101.3 kPa, x1 = 0.761	0.858
298 K, 101.3 kPa, x1 = 0.8784	0.867
298.15 K, 101 kPa, x2 = 0.0367	0.877
298.15 K, 101 kPa, x2 = 0.0708	0.871
298.15 K, 101 kPa, x2 = 0.0886	0.869
298.15 K, 101 kPa, x2 = 0.1063	0.865
298.15 K, 101 kPa, x2 = 0.2	0.858
298.15 K, 101 kPa, x2 = 0.2104	0.8395
298.15 K, 101 kPa, x2 = 0.2547	0.857
298.15 K, 101 kPa, x2 = 0.35	0.854
298.15 K, 101 kPa, x2 = 0.375	0.8288
298.15 K, 101 kPa, x2 = 0.4226	0.842
298.15 K, 101 kPa, x2 = 0.46	0.846
298.15 K, 101 kPa, x2 = 0.4787	0.839
298.15 K, 101 kPa, x2 = 0.5069	0.8105
298.15 K, 101 kPa, x2 = 0.55	0.831
298.15 K, 101 kPa, x2 = 0.5618	0.815
298.15 K, 101 kPa, x2 = 0.6107	0.807
298.15 K, 101 kPa, x2 = 0.6154	0.7666
298.15 K, 101 kPa, x2 = 0.6934	0.77
298.15 K, 101 kPa, x2 = 0.7057	0.7387
298.15 K, 101 kPa, x2 = 0.76	0.764
298.15 K, 101 kPa, x2 = 0.7826	0.7057
298.15 K, 101 kPa, x2 = 0.7853	0.719
298.15 K, 101 kPa, x2 = 0.83	0.702
298.15 K, 101 kPa, x2 = 0.8483	0.6886
298.15 K, 101 kPa, x2 = 0.88	0.665
298.15 K, 101 kPa, x2 = 0.9029	0.626
298.15 K, 101 kPa, x2 = 0.9057	0.6477
298.15 K, 101 kPa, x2 = 0.9065	0.6438
298.15 K, 101 kPa, x2 = 0.95	0.599
298.15 K, 101 kPa, x2 = 0.9555	0.5806
298.15 K, 101 kPa, x2 = 0.9571	0.5875
298.15 K, 101 kPa, x2 = 0.9616	0.577
298.15 K, 101 kPa, x2 = 0.9788	0.5672
303.15 K, 101 kPa, x1 = 0.0355	0.54
303.15 K, 101 kPa, x1 = 0.1574	0.594
303.15 K, 101 kPa, x1 = 0.2723	0.665
303.15 K, 101 kPa, x1 = 0.4653	0.71
303.15 K, 101 kPa, x1 = 0.6066	0.76
303.15 K, 101 kPa, x1 = 0.7506	0.766
303.15 K, 101 kPa, x1 = 0.901	0.78
303.15 K, 101 kPa, x2 = 0.0396	0.8187
303.15 K, 101 kPa, x2 = 0.0862	0.8054
303.15 K, 101 kPa, x2 = 0.1437	0.7973
303.15 K, 101 kPa, x2 = 0.2352	0.793
303.15 K, 101 kPa, x2 = 0.3077	0.7919
303.15 K, 101 kPa, x2 = 0.4129	0.7852
303.15 K, 101 kPa, x2 = 0.531	0.7677
303.15 K, 101 kPa, x2 = 0.6187	0.7443
303.15 K, 101 kPa, x2 = 0.6838	0.7184
303.15 K, 101 kPa, x2 = 0.824	0.6435
303.15 K, 101 kPa, x2 = 0.8821	0.6038
303.15 K, 101 kPa, x2 = 0.9292	0.5669
303.15 K, 101 kPa, x2 = 0.9728	0.5306
308.15 K, 101 kPa, x2 = 0.0367	0.764
308.15 K, 101 kPa, x2 = 0.0708	0.756
308.15 K, 101 kPa, x2 = 0.0886	0.755
308.15 K, 101 kPa, x2 = 0.1063	0.749
308.15 K, 101 kPa, x2 = 0.2547	0.738
308.15 K, 101 kPa, x2 = 0.4226	0.724
308.15 K, 101 kPa, x2 = 0.4787	0.72
308.15 K, 101 kPa, x2 = 0.5618	0.7
308.15 K, 101 kPa, x2 = 0.6107	0.691
308.15 K, 101 kPa, x2 = 0.6934	0.656
308.15 K, 101 kPa, x2 = 0.7853	0.619
308.15 K, 101 kPa, x2 = 0.9029	0.543
308.15 K, 101 kPa, x2 = 0.9616	0.502
313.15 K, 101 kPa, x1 = 0.0355	0.54
313.15 K, 101 kPa, x1 = 0.1574	0.594
313.15 K, 101 kPa, x1 = 0.2723	0.665
313.15 K, 101 kPa, x1 = 0.4653	0.71
313.15 K, 101 kPa, x1 = 0.6066	0.76
313.15 K, 101 kPa, x1 = 0.7506	0.766
313.15 K, 101 kPa, x1 = 0.901	0.78
313.15 K, 101.33 kPa, x2 = 0.105	0.7595
313.15 K, 101.33 kPa, x2 = 0.193	0.7624
313.15 K, 101.33 kPa, x2 = 0.303	0.75
313.15 K, 101.33 kPa, x2 = 0.35	0.7427
313.15 K, 101.33 kPa, x2 = 0.51	0.6955
313.15 K, 101.33 kPa, x2 = 0.68	0.6248
313.15 K, 101.33 kPa, x2 = 0.72	0.605
313.15 K, 101.33 kPa, x2 = 0.79	0.57
313.15 K, 101.33 kPa, x2 = 0.91	0.505
318 K, 101.3 kPa, x1 = 0.1527	0.5328
318 K, 101.3 kPa, x1 = 0.2949	0.6044
318 K, 101.3 kPa, x1 = 0.4375	0.6446
318 K, 101.3 kPa, x1 = 0.5566	0.6729
318 K, 101.3 kPa, x1 = 0.7077	0.69
318 K, 101.3 kPa, x1 = 0.8931	0.7164
318.15 K, 101 kPa, x2 = 0.0367	0.672
318.15 K, 101 kPa, x2 = 0.0708	0.664
318.15 K, 101 kPa, x2 = 0.0886	0.67
318.15 K, 101 kPa, x2 = 0.1063	0.657
318.15 K, 101 kPa, x2 = 0.2547	0.643
318.15 K, 101 kPa, x2 = 0.4226	0.63
318.15 K, 101 kPa, x2 = 0.4787	0.623
318.15 K, 101 kPa, x2 = 0.5618	0.607
318.15 K, 101 kPa, x2 = 0.6107	0.598
318.15 K, 101 kPa, x2 = 0.6934	0.57
318.15 K, 101 kPa, x2 = 0.7853	0.537
318.15 K, 101 kPa, x2 = 0.9029	0.476
318.15 K, 101 kPa, x2 = 0.9616	0.44
323.15 K, 101 kPa, x1 = 0.0355	0.51
323.15 K, 101 kPa, x1 = 0.1574	0.543
323.15 K, 101 kPa, x1 = 0.2723	0.612
323.15 K, 101 kPa, x1 = 0.4653	0.642
323.15 K, 101 kPa, x1 = 0.6066	0.682
323.15 K, 101 kPa, x1 = 0.7506	0.698
323.15 K, 101 kPa, x1 = 0.901	0.706

[Br-].[Li+] + O
viscosity
Conditions	293.15 K	298.15 K	303.15 K	308.15 K	313.15 K	318.15 K	323.15 K
100 kPa, x1 = 0.018	–	1.019 mPa·s	0.916 mPa·s	0.832 mPa·s	0.764 mPa·s	0.705 mPa·s	0.656 mPa·s
100 kPa, x1 = 0.035	–	1.161 mPa·s	1.052 mPa·s	0.966 mPa·s	0.888 mPa·s	0.822 mPa·s	0.763 mPa·s
100 kPa, x1 = 0.058	–	1.307 mPa·s	1.185 mPa·s	1.084 mPa·s	0.998 mPa·s	0.922 mPa·s	0.857 mPa·s
100 kPa, x1 = 0.092	–	1.601 mPa·s	1.452 mPa·s	1.327 mPa·s	1.219 mPa·s	1.126 mPa·s	1.045 mPa·s
100 kPa, x1 = 0.129	–	2.164 mPa·s	1.972 mPa·s	1.806 mPa·s	1.662 mPa·s	1.536 mPa·s	1.427 mPa·s
100 kPa, x1 = 0.17	–	3.258 mPa·s	2.945 mPa·s	2.683 mPa·s	2.459 mPa·s	2.263 mPa·s	2.093 mPa·s
100 kPa, x1 = 0.206	–	5.202 mPa·s	4.669 mPa·s	4.221 mPa·s	3.841 mPa·s	3.512 mPa·s	3.225 mPa·s
100 kPa, x1 = 0.246	–	9.066 mPa·s	8.028 mPa·s	7.154 mPa·s	6.41 mPa·s	5.769 mPa·s	5.198 mPa·s
101 kPa, x1 = 0.0109	1.079 mPa·s	–	0.855 mPa·s	–	–	–	0.593 mPa·s
101 kPa, x1 = 0.0353	1.245 mPa·s	–	0.999 mPa·s	–	–	–	0.694 mPa·s
101 kPa, x1 = 0.0649	1.472 mPa·s	–	1.195 mPa·s	–	–	–	0.842 mPa·s
101 kPa, x1 = 0.1	1.8 mPa·s	1.6 mPa·s	1.44 mPa·s	–	1.18 mPa·s	–	–
101 kPa, x1 = 0.101	1.854 mPa·s	–	1.523 mPa·s	–	–	–	1.093 mPa·s
101 kPa, x1 = 0.12	2.11 mPa·s	1.86 mPa·s	1.66 mPa·s	–	1.38 mPa·s	–	–
101 kPa, x1 = 0.131	2.377 mPa·s	–	1.947 mPa·s	–	–	–	1.408 mPa·s
101 kPa, x1 = 0.14	2.35 mPa·s	2.08 mPa·s	1.89 mPa·s	–	1.57 mPa·s	–	–
101 kPa, x1 = 0.15	2.6 mPa·s	2.34 mPa·s	2.09 mPa·s	–	1.72 mPa·s	–	–
101 kPa, x1 = 0.16	3.12 mPa·s	2.79 mPa·s	2.48 mPa·s	–	–	–	–
101 kPa, x1 = 0.1711	3.648 mPa·s	–	2.957 mPa·s	–	–	–	2.093 mPa·s
101 kPa, x1 = 0.19	4.21 mPa·s	3.73 mPa·s	3.34 mPa·s	–	–	–	–
101 kPa, x1 = 0.2	3.54 mPa·s and 5.05 mPa·s	3.1 mPa·s and 4.45 mPa·s	2.77 mPa·s and 3.95 mPa·s	–	–	–	–
101 kPa, x1 = 0.22	–	5.61 mPa·s	5 mPa·s	–	–	–	–
101 kPa, x1 = 0.24	–	7.22 mPa·s	6.36 mPa·s	–	–	–	–
101 kPa, x1 = 0.25	–	9.43 mPa·s	8.1 mPa·s	–	–	–	–
